Reference: patent US11254663B2 (BRISTOL-MYERS SQUIBB COMPANY, priority 2019, dated 2022)

The compounds below were run against FXR (Homo sapiens (Human), UniProt Q96RI1) (assay: FXR EC50 (FXR agonist potency reported with each Example)).
Assay type: cell-based

FXR, sequence (Q96RI1 262-486): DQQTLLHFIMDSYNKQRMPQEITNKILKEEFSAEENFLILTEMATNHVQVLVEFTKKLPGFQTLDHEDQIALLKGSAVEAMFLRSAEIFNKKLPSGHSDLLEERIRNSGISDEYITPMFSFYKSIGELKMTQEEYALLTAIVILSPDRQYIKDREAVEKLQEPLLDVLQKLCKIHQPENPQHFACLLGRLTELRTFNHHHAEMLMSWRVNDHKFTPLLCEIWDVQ

**Q.** Which EC50 does the source give for `Cc1noc(C23CCC(CN(C(=O)C45CC(F)(C4)C5)c4cccc(-c5cnc(C6CCOCC6)o5)c4)(CC2)CC3)n1` [Example 34, 3-Fluoro-N-((4-(3-methyl-1,2,4-oxadiazol-5-yl)bicyclo[2.2.2]octan-1-yl)methyl)-N-(3-(2-(tetrahydro-2H-pyran-4-yl)oxazol-5-yl)phenyl)bicyclo[1.1.1]pentane-1-carboxamide] here?
**A.** 1520 nM

**Q.** With `O=C(N(CC12CCC(c3noc(C4(C(F)(F)F)CC4)n3)(CC1)CC2)c1cccc(-c2nc(C3CC3)no2)c1)C12CC(F)(C1)C2` [Example 118, N-(3-(3-cyclopropyl-1,2,4-oxadiazol-5-yl)phenyl)-3-fluoro-N-((4-(5-(1-(trifluoromethyl)cyclopropyl)-1,2,4-oxadiazol-3-yl)bicyclo[2.2.2]octan-1-yl)methyl) bicyclo[1.1.1]pentane-1-carboxamide] as the compound, how does the EC50 read?
**A.** 30 nM

**Q.** Which EC50 does the source give for `COc1cc(-c2cccc(N(CC34CCC(c5ccc(C(C)(C)C#N)cc5)(CC3)OC4)C(=O)C3CCCC3)c2)ccn1` [Example 224, N-((1-(4-(2-cyanopropan-2-yl)phenyl)-2-oxabicyclo[2.2.2]octan-4-yl)methyl)-N-(3-(2-methoxypyridin-4-yl)phenyl)cyclopentanecarboxamide] here?
**A.** 894 nM

**Q.** Which EC50 does the source give for `CC1(C(=O)N(CC23CCC(c4nc(C(C)(C)C)no4)(CC2)CC3)c2cccc(-c3nc(C4CC4)no3)c2)COC1` [Example 191, N-((4-(3-(tert-butyl)-1,2,4-oxadiazol-5-yl)bicyclo[2.2.2]octan-1-yl)methyl)-N-(3-(3-cyclopropyl-1,2,4-oxadiazol-5-yl)phenyl)-3-methyloxetane-3-carboxamide] here?
**A.** 824 nM

**Q.** How did the EC50 turn out when `COCc1coc(-c2cccc(N(CC34CCC(c5nc(C6CC6)no5)(CC3)CC4)C(=O)C3CC(F)(F)C3)c2)n1` [Example 84, N-((4-(3-cyclopropyl-1,2,4-oxadiazol-5-yl)bicyclo[2.2.2]octan-1-yl)methyl)-3,3-difluoro-N-(3-(4-(methoxymethyl)oxazol-2-yl)phenyl)cyclobutane-1-carboxamide] was run?
**A.** 948 nM

**Q.** How did the EC50 turn out when `CC(C)c1nc(-c2cccc(N(CC34CCC(c5cc(C6CC6)nn5C)(CC3)CC4)C(=O)C34CC(F)(C3)C4)c2)no1` [Example 163, N-((4-(3-cyclopropyl-1-methyl-1H-pyrazol-5-yl)bicyclo[2.2.2]octan-1-yl)methyl)-3-fluoro-N-(3-(5-isopropyl-1,2,4-oxadiazol-3-yl)phenyl)bicyclo[1.1.1]pentane-1-carboxamide] was run?
**A.** 156 nM

**Q.** How did the EC50 turn out when `CCOc1ncc(-c2cccc(N(CC34CCC(c5nc(C6CC6)no5)(CC3)CC4)C(=O)C34CC(F)(C3)C4)c2)o1` [Example 7, N-((4-(3-cyclopropyl-1,2,4-oxadiazol-5-yl)bicyclo[2.2.2]octan-1-yl)methyl)-N-(3-(2-ethoxyoxazol-5-yl)phenyl)-3-fluorobicyclo[1.1.1]pentane-1-carboxamide] was run?
**A.** 22 nM

**Q.** With `O=C(C1CCC(F)(F)C1)N(CC12CCC(c3nc(CC4CC4)no3)(CC1)CC2)c1cccc(-c2nc(CC3CC3)no2)c1` (stereo not shown) [Example 62, N-((4-(3-(cyclopropylmethyl)-1,2,4-oxadiazol-5-yl)bicyclo[2.2.2]octan-1-yl)methyl)-N-(3-(3-(cyclopropylmethyl)-1,2,4-oxadiazol-5-yl)phenyl)-3,3-difluorocyclopentane-1-carboxamide] as the compound, how does the EC50 read?
**A.** 363 nM

**Q.** With `O=C(N(CC12CCC(c3nc(C4CC4)no3)(CC1)CC2)c1cccc(-c2noc(C(F)F)n2)c1)C12CC(F)(C1)C2` [Example 105, N-((4-(3-cyclopropyl-1,2,4-oxadiazol-5-yl)bicyclo[2.2.2]octan-1-yl)methyl)-N-(3-(5-(difluoromethyl)-1,2,4-oxadiazol-3-yl)phenyl)-3-fluorobicyclo[1.1.1]pentane-1-carboxamide] as the compound, how does the EC50 read?
**A.** 57 nM

**Q.** How did the EC50 turn out when `O=C(N(CC12CCC(c3nnc(C4CC4)o3)(CC1)CC2)c1cccc(-c2nc(C3CC3)no2)c1)C12CC(F)(C1)C2` [Example 137, N-(3-(3-cyclopropyl-1,2,4-oxadiazol-5-yl)phenyl)-N-((4-(5-cyclopropyl-1,3,4-oxadiazol-2-yl)bicyclo[2.2.2]octan-1-yl)methyl)-3-fluorobicyclo[1.1.1]pentane-1-carboxamide] was run?
**A.** 43 nM

**Q.** With `CS(=O)(=O)n1cc(-c2cccc(N(CC34CCC(c5nc(C6CC6)no5)(CC3)CC4)C(=O)C34CC(F)(C3)C4)c2)cn1` [Example 159, N-((4-(3-cyclopropyl-1,2,4-oxadiazol-5-yl)bicyclo[2.2.2]octan-1-yl)methyl)-3-fluoro-N-(3-(1-(methylsulfonyl)-1H-pyrazol-4-yl)phenyl)bicyclo[1.1.1]pentane-1-carboxamide] as the compound, how does the EC50 read?
**A.** 73 nM

**Q.** Which EC50 does the source give for `O=C(C1CC(F)(F)C1)N(CC12CCC(c3nc(C4CC4)no3)(CC1)CC2)c1cccc(-c2cnc(C3CC3)o2)c1` [Example 22, N-((4-(3-cyclopropyl-1,2,4-oxadiazol-5-yl)bicyclo[2.2.2]octan-1-yl)methyl)-N-(3-(2-cyclopropyloxazol-5-yl)phenyl)-3,3-difluorocyclobutane-1-carboxamide] here?
**A.** 133 nM

**Q.** `CC(C)(C)c1nc(C23CCC(CN(C(=O)C45CC(F)(C4)C5)c4cccc(-c5nnc(C6CC6)o5)c4)(CC2)CC3)no1` [Example 157, N-((4-(5-(tert-butyl)-1,2,4-oxadiazol-3-yl)bicyclo[2.2.2]octan-1-yl)methyl)-N-(3-(5-cyclopropyl-1,3,4-oxadiazol-2-yl)phenyl)-3-fluorobicyclo[1.1.1]pentane-1-carboxamide] was tested. Which EC50 did it give?
**A.** 43 nM

**Q.** Which EC50 does the source give for `O=C(C1CC(F)(F)C1)N(CC12CCC(c3nc(C4CC4)no3)(CC1)CC2)c1cccc(-c2cc(C3CC3)on2)c1` [Example 60, N-((4-(3-cyclopropyl-1,2,4-oxadiazol-5-yl)bicyclo[2.2.2]octan-1-yl)methyl)-N-(3-(5-cyclopropylisoxazol-3-yl)phenyl)-3,3-difluorocyclobutane-1-carboxamide] here?
**A.** 230 nM

**Q.** For `O=C(N(CC12CCC(c3noc(C4CC4)n3)(CC1)CC2)c1cccc(-c2nc(C3CC3)no2)c1)C12CC(F)(C1)C2` [Example 116, N-((4-(5-cyclopropyl-1,2,4-oxadiazol-3-yl)bicyclo[2.2.2]octan-1-yl)methyl)-N-(3-(3-cyclopropyl-1,2,4-oxadiazol-5-yl)phenyl)-3-fluorobicyclo[1.1.1]pentane-1-carboxamide], which EC50 is on record?
**A.** 117 nM

**Q.** For `O=C(C1CC(F)(F)C1)N(CC12CCC(c3nc(C4CC4)no3)(CC1)CC2)c1cccc(-c2cnc(C3CCOCC3)o2)c1` [Example 36, N-((4-(3-cyclopropyl-1,2,4-oxadiazol-5-yl)bicyclo[2.2.2]octan-1-yl)methyl)-3,3-difluoro-N-(3-(2-(tetrahydro-2H-pyran-4-yl)oxazol-5-yl)phenyl)cyclobutane-1-carboxamide], which EC50 is on record?
**A.** 497 nM

**Q.** For `CC(C)c1noc(C23CCC(CN(C(=O)C45CC(F)(C4)C5)c4cccc(-c5noc(C6(C)CC6)n5)c4)(CC2)CC3)n1` [Example 175, 3-fluoro-N-((4-(3-isopropyl-1,2,4-oxadiazol-5-yl)bicyclo[2.2.2]octan-1-yl)methyl)-N-(3-(5-(1-methylcyclopropyl)-1,2,4-oxadiazol-3-yl)phenyl)bicyclo[1.1.1]pentane-1-carboxamide], which EC50 is on record?
**A.** 54 nM

**Q.** With `CC(C)(O)c1coc(-c2cccc(N(CC34CCC(c5nc(C6CC6)no5)(CC3)CC4)C(=O)C3CC(C(F)F)C3)c2)n1` (stereo not shown) [Example 17, N-((4-(3-cyclopropyl-1,2,4-oxadiazol-5-yl)bicyclo[2.2.2]octan-1-yl)methyl)-3-(difluoromethyl)-N-(3-(4-(2-hydroxypropan-2-yl)oxazol-2-yl)phenyl)cyclobutane-1-carboxamide] as the compound, how does the EC50 read?
**A.** 309 nM

**Q.** For `O=C(C1CCC(F)(F)C1)N(CC12CCC(c3nnc(C4CC4)o3)(CC1)CC2)c1cccc(-c2nnc(C3CC3)o2)c1` (racemic) [Example 133, N-((4-(5-cyclopropyl-1,3,4-oxadiazol-2-yl)bicyclo[2.2.2]octan-1-yl)methyl)-N-(3-(5-cyclopropyl-1,3,4-oxadiazol-2-yl)phenyl)-3,3-difluorocyclopentane-1-carboxamide], which EC50 is on record?
**A.** 293 nM

**Q.** For `O=C(N(CC12CCC(c3nc(C4CC4)no3)(CC1)CC2)c1cccc(-c2noc(C3CC(F)(F)C3)n2)c1)C12CC(F)(C1)C2` [Example 103, N-((4-(3-cyclopropyl-1,2,4-oxadiazol-5-yl)bicyclo[2.2.2]octan-1-yl)methyl)-N-(3-(5-(3,3-difluorocyclobutyl)-1,2,4-oxadiazol-3-yl)phenyl)-3-fluorobicyclo[1.1.1]pentane-1-carboxamide], which EC50 is on record?
**A.** 227 nM

**Q.** Which EC50 does the source give for `O=C(N(CC12CCC(c3nc(C4CC4)no3)(CC1)OC2)c1cccc(-c2noc(C3CC3)n2)c1)C12CC(F)(C1)C2` [Example 203] here?
**A.** 74 nM

**Q.** `CC(C)(C)c1noc(C23CCC(CN(C(=O)C45CC(F)(C4)C5)c4cccc(-c5nc(C6CC6)no5)c4)(CC2)CC3)n1` [Example 88, N-((4-(3-(tert-butyl)-1,2,4-oxadiazol-5-yl)bicyclo[2.2.2]octan-1-yl)methyl)-N-(3-(3-cyclopropyl-1,2,4-oxadiazol-5-yl)phenyl)-3-fluorobicyclo[1.1.1]pentane-1-carboxamide] was tested. Which EC50 did it give?
**A.** 86 nM

**Q.** With `O=C(N(CC12CCC(c3noc(C4(C(F)(F)F)CC4)n3)(CC1)CC2)c1cccc(-c2cn[nH]c2)c1)C12CC(F)(C1)C2` [Example 209, N-(3-(1H-pyrazol-4-yl)phenyl)-3-fluoro-N-((4-(5-(1-(trifluoromethyl)cyclopropyl)-1,2,4-oxadiazol-3-yl)bicyclo[2.2.2]octan-1-yl)methyl)bicyclo[1.1.1]pentane-1-carboxamide] as the compound, how does the EC50 read?
**A.** 152 nM

**Q.** With `CC(C)(C)c1noc(C23CCC(CN(C(=O)C45CC(F)(C4)C5)c4cccc(-c5noc(C6(C)COC6)n5)c4)(CC2)CC3)n1` [Example 174, N-((4-(3-(tert-butyl)-1,2,4-oxadiazol-5-yl)bicyclo[2.2.2]octan-1-yl)methyl)-3-fluoro-N-(3-(5-(3-methyloxetan-3-yl)-1,2,4-oxadiazol-3-yl)phenyl)bicyclo[1.1.1]pentane-1-carboxamide] as the compound, how does the EC50 read?
**A.** 40 nM

**Q.** For `CCc1noc(-c2cccc(N(CC34CCC(c5nc(C)no5)(CC3)CC4)C(=O)C34CC(F)(C3)C4)c2)n1` [Example 3, N-(3-(3-ethyl-1,2,4-oxadiazol-5-yl)phenyl)-3-fluoro-N-((4-(3-methyl-1,2,4-oxadiazol-5-yl)bicyclo[2.2.2]octan-1-yl)methyl)bicyclo[1.1.1]pentane-1-carboxamide], which EC50 is on record?
**A.** 346 nM
